For the experiment, the system named is males with ASD. Put plainly: Repetitive Behavior Questionnaire (RBQ), SAT-1 trial. The class given is in vivo, human. The method, then: Two observational examinations were performed by a clinician at 3 time points: baseline (56±8 days; mean±SEM; before the infusion), 2-days post-infusion, and 6-weeks post-infusion. The two examiner-based metrics were the Autism Diagnostic Observation Schedule, 2nd edition (ADOS-2) with video and audio files recorded on 3 cameras, and the Expressive One Word Picture Vocabulary Testing (EOWPVT). Both of these observational metrics were administered by a trained and certified examiner using approved test materials. Three standardized questionnaires were completed by parents at 3 time points: baseline, 7-days post-infusion, and 6-weeks post-infusion. The three standardized questionnaires completed by parents were the 58-question Aberrant Behavior Checklist (ABC), the 75-item Autism Treatment Evaluation Checklist (ATEC), and the 33-item repetitive behavior questionnaire (RBQ). Parents were asked to complete these three instruments with reference to how their child behaved in the previous 7 days. […]
Behavioral and neurological effects of treatment were assessed primarily by the examiner-based ADOS-2 protocol scores and standardized vocabulary testing (Expressive One Word Picture Vocabulary Test, EOWPVT), with secondary evaluation via parent-based assessments (Aberrant Behavior Checklist (ABC) scores, Autism Treatment Evaluation Checklist (ATEC) scores, Clinical Global Impression of Improvement (CGI) scores, and Repetitive Behavior Questionnaire (RBQ) scores). […] Examiner-based outcomes (ADOS and EOWPVT) were assessed at 2-days and 6-weeks after the infusion. Parent-based outcomes (ABC, ATEC, CGI, and RBQ) were assessed at 7-days and 6-weeks after the infusion. […]
Each child was used as their own control to examine before and after treatment effects from Example 1 in a paired t-test design for the analysis of the ADOS, EOWPVT, ABC, ATEC, RBQ (FIGS. 4-11 show individual analyses), and blood and urine safety data (FIGS. 2 and 3 show individual analyses). […] Categorical data, such as the presence or absence of adverse events or historical symptoms was analyzed by Fisher's exact test. […]

[1] abbreviates: RBQ Total, 45 days after treatment.

Take `Cc1ccc(C(=O)Nc2ccc(S(=O)(=O)O)c3cc(S(=O)(=O)O)cc(S(=O)(=O)O)c23)cc1NC(=O)c1cccc(NC(=O)Nc2cccc(C(=O)Nc3cc(C(=O)Nc4ccc(S(=O)(=O)O)c5cc(S(=O)(=O)O)cc(S(=O)(=O)O)c45)ccc3C)c2)c1` [Suramin, suramin]: for the setting “6-weeks”, the “Repetitive Behavior Questionnaire (RBQ) scores” value was “did not capture a change”. In addition, under setting [1], the “Difference from baseline (mean ± sd)” value is on record as −3.2 ± 5.8 and the “d (Cohen's d)” value is 0.55.

The values are drawn from patent US20190358181A1, “METHODS FOR AUTISM SPECTRUM DISORDER PHARMACOTHERAPY” (priority 2017, published 2019).
